Consider 28 compounds from US20120316192A1, “SUBSTITUTED INDOLO [2,3-A] QUINOLIZINES” (priority 2011, published 2012).

Broadly, the melting point is the temperature, or range, at which the solid turns liquid.

In one data set the test system is HeLa cells. Kind of data set: FACS analysis of the cell cycle (propidium iodide DNA content). In kind it is cell-based, human. The settings on record: 1 μM nocodazole, 24 h after treatment. As for the experimental part:
HeLa human cervical carcinoma cell line, the human breast cancer cell line MCF7, and the human colorectal carcinoma cell line SW480 were maintained in Dulbecco's Modified Eagle's medium (DMEM, PAA, Pasching Austria). The colorectal cell line HT29 was cultured in McCoy's 5A medium (PAA, Pasching, Austria). DMEM medium was supplemented with 10% fetal calf serum, sodium pyruvate, non-essential amino acids, penicillin and streptomycin, McCoy's 5A medium was supplemented with 10% fetal calf serum, penicillin and streptomycin. All cell lines were cultured at 37° C. in a 5% CO2 humidified atmosphere. Further, fluorescent activated cell sorting (FACS) was used successfully to analyze the cell cycle and mitotic arrest under the influence of indoloquinolizines. HeLa cells were fixed and stained for FACS analysis 24 h after compound treatment. Cells were trypsinized and combined with any floating cells, pelleted, and resuspended in 1 ml PBS. Ice cold ethanol (70%) was added, and samples were incubated at −20° C. until analysis. After fixation the cells were pelleted, resuspended in 500 μl staining solution (50 μg/ml propidium iodide, 0.1 mg/ml RNase A, 0.05% Triton X-100) and incubated for 40 min at 37° C. 3 ml PBS were added; the cells were pelleted again and resuspended in 500 μl PBS. The DNA content was measured with a Becton Dickinson LSRII and analyzed with FlowJo 7.5 software. The cell cycle of compound treated HeLa cells was analyzed by fluorescence activated cell sorting (FIG. 1). […] A similar distribution is given in (−)-1-01 treated cells (FIGS. 1c and 1d); here 9% are in G1 and 38% in G2/M phase (25 μM) respectively; 8% in G1 and 40% in G2/M phase (50 μM). This means that the mitotic index is increased by more than two fold (from 0.16 to 0.38 respectively 0.40), indicating a mitotic arrest after compound treatment.
A general note: Flow cytometry measures light scatter and fluorescence of single cells or particles in a stream.
Consider `COC(=O)Nc1nc2ccc(C(=O)c3cccs3)cc2[nH]1` [nocodazole, reference compound], for which the “cells in G1 phase” value was found to be 4% and the “cells in G2/M phase” value turned out to be 40%.

In the next data set the test system is all cell lines but Saos2. The data set can be described thus: Apo-ONE homogeneous caspase-3/7 assay (apoptosis), summary statement. It counts as cell-based. Conditions: all cell lines but Saos2, 42 h. As to the method: HeLa human cervical carcinoma cell line, the human breast cancer cell line MCF7, the African green monkey kidney cell line BS-C-1 and the human colorectal carcinoma cell lines HCT116 and SW480 were maintained in Dulbecco's Modified Eagle's medium (DMEM, PAA, Pasching Austria). The colorectal cell line HT29 was cultured in McCoy's 5A medium (PAA, Pasching, Austria). The prostate carcinoma cells PC3 and the osteosarcoma cells Saos2 were cultured in RPMI medium (PAA, Pasching Austria). All media were supplemented with 10% fetal calf serum, L-glutamine, penicillin and streptomycin. All cell lines were maintained at 37° C. in a 5% CO2 humidified atmosphere.
Therefore we measured the caspase-3/7 activity in different cell lines with the Apo-ONE® homogeneous caspase-3/7 assay.
Caspase-3/7 activities were determined using the Apo-ONE® homogeneous caspase-3/7 assay (Promega, Mannheim Germany) according to the manufacturer's protocol. Briefly, cells were plated in quadruplicates in 384-well cell culture plate. After 24 hours cells were exposed for 42 hours to the compounds at different concentrations. Control cells were treated with 0.5% DMSO or staurosporine (STS). Subsequently cells were lysed with a lysis buffer containing the caspase-3/7 substrate Z-DEVD-R110 and were incubated at room temperature until further analysis. The fluorescence was detected with the TECAN Inifinite® M200 plate reader at excitation/emission wavelength 485/520 nm. The blank value was subtracted from each value and the relative caspase-3/7 activity was calculated compared to the DMSO treated cells.
These findings correlate with our results from the cell viability assays for these indoloquinolizine.
On to `COC(=O)C1=CC(C(=O)c2ccccc2O)=CN2CCc3c([nH]c4ccccc34)C12C(=O)OC` (single isomer, unassigned; (+)) [(+)-1-01, Dimethyl-3-(2-hydroxybenzoyl)-6,7,12,12b-tetrahydroindolo[2,3a]quinolizine-1,12b-dicarboxylate], for which the “impact on the apoptosis” value is recorded as “did not have any impact on the apoptosis”. On to `COC(=O)C1=CC(C(=O)c2ccccc2O)=CN2CCc3c([nH]c4ccc(OC)cc34)C12C(=O)OC` (single isomer, unassigned; (+)) [(+)-1-04, Dimethyl-3-(2-hydroxybenzoyl)-9-methoxy-6,7,12,12b-tetrahydro-indolo[2,3-a]quinolizine-1,12b-dicarboxylate], for which the “impact on the apoptosis” value is listed as “did not have any impact on the apoptosis”.

System in another data set: not given
Assay: not given
Settings: not given
`CCOC(=O)C1=CC(C(=O)c2cc(Cl)c(C)cc2O)=CN2CCc3c([nH]c4ccccc34)C12C(=O)OCC` (centres unmarked) [Compound 1-18, Diethyl-3-(5-chloro-2-hydroxy-4-methylbenzoyl)-6,7,12,12b-tetrahydroindolo[2,3-a]quinolizine-1,12b-dicarboxylate] gave a melting point of 196 °C. In the case of `COC(=O)C1=CC(C(=O)c2ccccc2O)=CN2[C@H](C(=O)OC)Cc3c([nH]c4ccccc34)C12C(=O)OC` (stereo partly drawn) [Compound 1-28, (6S)-trimethyl 3-(2-hydroxybenzoyl)-6,7,12,12b-tetrahydroindolo[2,3-a]quinolizine-1,6,12b-tricarboxylate], the melting point was 244 °C (dec.). As for `COC(=O)C1=CC(C(=O)c2cc(Br)ccc2O)=CN2CCc3c([nH]c4ccccc34)C12C(=O)OC` (centres unmarked), the melting point is 220 °C (dec.). `CCOC(=O)C1=CC(C(=O)c2cc(Br)ccc2O)=CN2CCc3c([nH]c4ccc(OC)cc34)C12C(=O)OCC` (centres unmarked) [Compound 1-22, Diethyl-3-(5-bromo-2-hydroxybenzoyl)-9-methoxy-6,7,12,12b-tetrahydroindolo[2,3-a]quinolizine-1,12b-dicarboxylate] yielded a melting point of 225 °C. `COC(=O)C1=CC(C(=O)c2ccc(OCc3ccccc3)c(C)c2O)=CN2CCc3c([nH]c4ccccc34)C12C(=O)OC` (centres unmarked) [Compound 1-23, Dimethyl 3-(4-(benzyloxy)-2-hydroxy-3-methylbenzoyl)-6,7,12,12b-tetrahydroindolo[2,3-a]quinolizine-1,12b-dicarboxylate] had a melting point of 216 °C. Regarding `COC(=O)C1=CC(C(=O)c2cc(C)ccc2O)=CN2CCc3c([nH]c4ccccc34)C12C(=O)OC` (centres unmarked), the melting point came to 197 °C. Same read-out and setting: for `CC(C)(C)OC(=O)C1=CC(C(=O)c2ccccc2O)=CN2CCc3c([nH]c4ccccc34)C12C(=O)OC(C)(C)C` (centres unmarked) [Compound 1-54, di-tert-butyl 3-(2-hydroxybenzoyl)-6,7,12,12b-tetrahydroindolo[2,3-a]quinolizine-1,12b-dicarboxylate] the value was 237 °C (dec.); for `COC(=O)C1=CC(C(=O)c2ccccc2O)=CN2CCc3c([nH]c4ccc(O)cc34)C12C(=O)OC` (centres unmarked), 180 °C (dec.). On to `CCOC(=O)C1=CC(C(=O)c2ccccc2O)=CN2CCc3c([nH]c4ccc(OC)cc34)C12C(=O)OCC` (centres unmarked) [Compound 1-13, Diethyl-3-(2-hydroxybenzoyl)-9-methoxy-6,7,12,12b-tetrahydro-indolo[2,3-a]quinolizine-1,12b-dicarboxylate], for which the melting point turned out to be 212 °C.

`COC(=O)C1=CC(C(=O)c2ccccc2O)=CN2CCc3c([nH]c4ccccc34)C12C(=O)OC` (centres unmarked): the melting point was 258 °C (dec.). Same read-out and setting: with `COC(=O)C1=CC(C(=O)c2cc(Cl)cc(Cl)c2O)=CN2CCc3c([nH]c4ccccc34)C12C(=O)OC` (centres unmarked) the figure was 238.2 °C (dec.). On the same count and under the same terms, with `CCOC(=O)C1=CC(C(=O)c2cc(C)ccc2O)=CN2CCc3c([nH]c4ccc(OC)cc34)C12C(=O)OCC` (centres unmarked) [Compound 1-16, Diethyl-3-(2-hydroxy-5-methylbenzoyl)-9-methoxy-6,7,12,12b-tetrahydroindolo[2,3-a]quinolizine-1,12b-dicarboxylate] the figure was 228 °C; with `CCOC(=O)C1=CC(C(=O)c2cc(C)ccc2O)=CN2CCc3c([nH]c4ccccc34)C12C(=O)OCC` (centres unmarked) [Compound 1-03, Diethyl-3-(2-hydroxy-5-methylbenzoyl)-6,7,12,12b-tetrahydroindolo-[2,3-a]quinolizine-1,12b-dicarboxylate], 208 °C; with `CCOC(=O)C1=CC(C(=O)c2ccccc2O)=CN2CCc3c([nH]c4ccccc34)C12C(=O)OCC` (centres unmarked), 209 °C. Same read-out and setting: for `COC(=O)C1=CC(C(=O)c2ccccc2O)=CN2CCc3c([nH]c4ccc(OC)cc34)C12C(=O)OC` (centres unmarked) the value was 163 °C (dec.).

In turn, `CCOC(=O)C1=CC(C(=O)c2cc(Cl)ccc2O)=CN2CCc3c([nH]c4ccccc34)C12C(=O)OCC` (centres unmarked) [Compound 1-19, Diethyl-3-(5-chloro-2-hydroxybenzoyl)-6,7,12,12b-tetrahydro-indolo[2,3-a]quinolizine-1,12b-dicarboxylate] came in with a melting point of 216 °C. As for `COC(=O)C1=CC(C(=O)c2cc(Br)cc(Br)c2O)=CN2CCc3c([nH]c4ccccc34)C12C(=O)OC` (centres unmarked), the melting point was 131 °C.

`COC(=O)C1=CC(C(=O)c2c(O)cccc2OC)=CN2CCc3c([nH]c4ccccc34)C12C(=O)OC` (centres unmarked): the melting point is 237 °C (dec.).

In turn, `CCOC(=O)C1=CC(C(=O)c2cc(Cl)ccc2O)=CN2CCc3c([nH]c4ccc(OC)cc34)C12C(=O)OCC` (centres unmarked) [Compound 1-20, Diethyl-3-(5-chloro-2-hydroxybenzoyl)-9-methoxy-6,7,12,12b-tetrahydroindolo[2,3-a]quinolizine-1,12b-dicarboxylate] returned a melting point of 230 °C. Take `COC(=O)C1=CC(C(=O)c2cc(Cl)ccc2O)=CN2CCc3c([nH]c4ccccc34)C12C(=O)OC` (centres unmarked): the melting point is 232 °C (dec.). Compound `CCOC(=O)C1=CC(C(=O)c2cc(Br)ccc2O)=CN2CCc3c([nH]c4ccccc34)C12C(=O)OCC` (centres unmarked) [Compound 1-14, Diethyl-3-(5-bromo-2-hydroxybenzoyl)-6,7,12,12b-tetrahydro-indolo[2,3-a]quinolizine-1,12b-dicarboxylate] yielded a melting point of 215 °C. As for `COC(=O)C1=CC(C(=O)c2ccccc2OC)=CN2CCc3c([nH]c4ccccc34)C12C(=O)OC` (centres unmarked), the melting point is 261 °C (dec.). Still for that read-out and setting: with `COC(=O)C1=CC(C(=O)c2ccccc2O)=CN2CCc3c([nH]c4ccc(Br)cc34)C12C(=O)OC` (centres unmarked) the figure was 182 °C; with `COC(=O)C1=CC(C(=O)c2cc(Br)ccc2O)=CN2CCc3c([nH]c4ccc(OC)cc34)C12C(=O)OC` (centres unmarked) [Compound 1-05, Dimethyl-3-(5-bromo-2-hydroxybenzoyl)-9-methoxy-6,7,12,12b-tetrahydro-indolo[2,3-a]quinolizine-1,12b-dicarboxylate], 197 °C (dec.). On the same count and under the same terms, for `COC(=O)C1=CC(C(=O)c2ccccc2O)=CN2CCc3c([nH]c4ccc(C)cc34)C12C(=O)OC` (centres unmarked) the value was 175 °C.
